Experiment: Inhibition of Escherichia coli DXR by spectrophotometric method

O=CN(O)CCCP(=O)(O)O [FOSMIDOMYCIN]
IC50: 30 nM
